# Where two headings read alike, the source gives them in different places.
# How the values were obtained:
# Assay type in all cases: cell-based
# [1] = system: Shigella sonnei II 37148; assay: MIC against bacteria (Table I), strain (12); details: II37148
# From the text: (§1) Now, for illustrating the excellent pharmacological effects of the compounds of this invention, the values of MIC (γ/ml.) of the compounds against various bacteria are shown in Table 1, in which the compounds of this invention used are shown by example numbers.
# [2] = system: Proteus vulgaris OXK US; assay: MIC against bacteria (Table I), strain (1); details: (1) Proteus vulgaris OXK US; read-out: MIC
# From the text: as §1
# (1) Proteus vulgaris OXK US
# [3] = system: Staphylococcus Onuma; assay: MIC against bacteria (Table I), strain (18); details: (18) Staphylococcus Onuma; read-out: MIC
# From the text: as §1
# (18) Staphylococcus Onuma
# [4] = system: Escherichia coli kauffmann 0-1; assay: MIC against bacteria (Table I), strain (7); details: Escherichia coli
# From the text: as §1
# (7) Escherichia coli kauffmann 0-1
# [5] = system: Pseudomonas aeruginosa 99 (Gentamycin resistant); assay: MIC against bacteria (Table I), strain (5)
# From the text: as §1
# (5) Pseudomonas aeruginosa 99 (Gentamycin resistant)
# [6] = system: Micrococcus flavus ATCC 10240; assay: MIC against bacteria (Table I), strain (15); details: ATCC10240
# From the text: as §1
# (15) Micrococcus flavus ATCC 10240
# [7] = system: Klebsiella pneumoniae ATCC 10031; assay: MIC against bacteria (Table I), strain (8); details: ATCC10031
# From the text: as §1
# (8) Klebsiella pneumoniae ATCC 10031
# [8] = system: Bacillus megatherium 10778; assay: MIC against bacteria (Table I), strain (13)
# From the text: as §1
# [9] = system: Shigella flexneri 2a 1675; assay: MIC against bacteria (Table I), strain (11); details: 2A1675
# From the text: as §1
# [10] = system: Proteus vulgaris 0X 19US; assay: MIC against bacteria (Table I), strain (2); details: 0X19US
# From the text: as §1
# (2) Proteus vulgaris 0X 19US
# [11] = system: Salmonella enteritidis; assay: MIC against bacteria (Table I), strain (10); details: Salmonella enterica
# From the text: as §1
# (10) Salmonella enteritidis
# [12] = system: Psuedomonas ovalis IMA 1002; assay: MIC against bacteria (Table I), strain (6); details: (6) Psuedomonas ovalis IMA 1002; read-out: MIC
# From the text: as §1
# (6) Psuedomonas ovalis IMA 1002
# [13] = system: Proteus mirabilis IXM OM-19; assay: MIC against bacteria (Table I), strain (3); details: IXMOM19
# From the text: as §1
# (3) Proteus mirabilis IXM OM-19
# [14] = system: Bacillus subtilis ATCC 6633; assay: MIC against bacteria (Table I), strain (14); details: ATCC6633
# From the text: as §1
# (14) Bacillus subtilis ATCC 6633
# [15] = system: Staphylococcus Shimanishi; assay: MIC against bacteria (Table I), strain (17)
# From the text: as §1
# (17) Staphylococcus Shimanishi
# [16] = system: Salmonella typhi H901 W; assay: MIC against bacteria (Table I), strain (9); details: Salmonella enterica, TYPHI
# From the text: as §1
# (9) Salmonella typhi H901 W
# [17] = system: Staphylococcus aureus 209P; assay: MIC against bacteria (Table I), strain (16); details: Staphylococcus aureus, 209P
# From the text: as §1
# (16) Staphylococcus aureus 209P
# [18] = system: Pseudomonas aeruginosa ATCC 8689; assay: MIC against bacteria (Table I), strain (4); details: ATCC8689; (4) Pseudomonas aeruginosa ATCC 8689; read-out: MIC
# From the text: as §1
# (4) Pseudomonas aeruginosa ATCC 8689
# [19] = (12) Shigella sonnei II 37148, read-out: MIC
# [20] = (5) Pseudomonas aeruginosa 99 (Gentamycin resistant), read-out: MIC
# [21] = (8) Klebsiella pneumoniae ATCC 10031, read-out: MIC
# [22] = (13) Bacillus megatherium 10778, read-out: MIC
# [23] = (11) Shigella flexneri 2a 1675, read-out: MIC
# [24] = (2) Proteus vulgaris 0X 19US, read-out: MIC
# [25] = (10) Salmonella enteritidis, read-out: MIC
# [26] = (3) Proteus mirabilis IXM OM-19, read-out: MIC
# [27] = (14) Bacillus subtilis ATCC 6633, read-out: MIC
# [28] = (17) Staphylococcus Shimanishi, read-out: MIC
Structure (SMILES),"MIC [1, 19]",MIC [2],MIC [3],MIC [4],"MIC [5, 20]","MIC [7, 21]","MIC [8, 22]","MIC [9, 23]","MIC [10, 24]","MIC [11, 25]",MIC [12],"MIC [13, 26]","MIC [14, 27]","MIC [15, 28]",MIC [16],MIC [17],MIC [18],MIC ([6]; Micrococcus flavus),MIC ([15]; Staphylococcus),MIC ([10]; Proteus vulgaris),also measured
"Cc1cc(O)c(C(=O)N[C@@H](C(=O)N[C@@H]2C(=O)N3C(C(=O)O)=C(CSc4nnc(SCC(=O)O)s4)CS[C@H]23)c2ccccc2)cn1 [Example 29, 7-[D-α-(4-hydroxy-6-methylnicotinoylamido)-α-phenylacetamido]-3-(5-carboxymethylthio-1,3,4,-thiadiazol-2-yl)thiomethyl-Δ^3-cephem-4-carboxylic acid]",3.13 µg/mL,< 0.09 µg/mL,12.5 µg/mL,3.13 µg/mL,6.25 µg/mL,6.25 µg/mL,0.78 µg/mL,0.78 µg/mL,12.5 µg/mL,0.78 µg/mL,12.5 µg/mL,0.78 µg/mL,0.78 µg/mL,6.25 µg/mL,1.56 µg/mL,1.56 µg/mL,12.5 µg/mL,,,,"MIC ([6]; (15) Micrococcus flavus ATCC 10240, read-out: MIC): 6.25 µg/mL"
"Nn1c(SCC(=O)O)nnc1SCC1=C(C(=O)O)N2C(=O)[C@@H](NC(=O)[C@H](NC(=O)c3cnccc3O)c3ccccc3)[C@H]2SC1 [Example 30, 7-[D-α-(4-hydroxynicotinoylamido)-α-phenylacetamido]-3-(1-amino-5-carboxymethylthio-1,3,4-triazol-2-yl)thiomethyl-Δ^3-cephem-4-carboxylic acid]",12.5 µg/mL,< 0.09 µg/mL,25 µg/mL,6.25 µg/mL,,,0.78 µg/mL,6.25 µg/mL,0.78 µg/mL,1.56 µg/mL,25 µg/mL,0.78 µg/mL,0.78 µg/mL,,6.25 µg/mL,1.56 µg/mL,25 µg/mL,12.5 µg/mL,12.5 µg/mL,,MIC ([5]; Pseudomonas aeruginosa): 12.5 µg/mL; MIC ([7]; Klebsiella pneumoniae): 12.5 µg/mL
"O=C(O)Cc1nnc(SCC2=C(C(=O)O)N3C(=O)[C@@H](NC(=O)[C@H](NC(=O)c4csccc4=O)c4ccc(O)cc4)[C@H]3SC2)s1 [Example 32, 7-[D-α-(4-thiopyrone-3-carboxamido)-α-p-hydroxyphenylacetamido]-3-[5-carboxymethyl-1,3,4-thiadiazol-2-yl]thiomethyl-Δ^3-cephem-4-carboxylic acid]",3.13 µg/mL,< 0.09 µg/mL,6.25 µg/mL,3.13 µg/mL,25 µg/mL,6.25 µg/mL,,0.78 µg/mL,,,50 µg/mL,,,,1.56 µg/mL,1.56 µg/mL,50 µg/mL,3.13 µg/mL,3.13 µg/mL,3.13 µg/mL,"MIC ([8]; Bacillus, 10778): 0.78 µg/mL; MIC ([11]; ENTERITIDIS): 1.56 µg/mL; MIC ([13]; Proteus mirabilis): 0.78 µg/mL; MIC ([14]; Bacillus subtilis): 0.78 µg/mL"
"O=C(O)CSc1nnc(SCC2=C(C(=O)O)N3C(=O)[C@@H](NC(=O)[C@H](NC(=O)c4cnccc4O)c4ccc(O)cc4)[C@H]3SC2)s1 [Example 33, 7-[D-α-(4-hydroxynicotinoylamido)-α-p-hydroxyphenylacetamido]-3-[5-carboxymethylthio-1,3,4-Δ^3-thiadiazol-2-yl]thiomethyl-cephem-4-carboxylic acid]",,< 0.09 µg/mL,25 µg/mL,3.13 µg/mL,25 µg/mL,25 µg/mL,0.78 µg/mL,,,1.56 µg/mL,12.5 µg/mL,0.39 µg/mL,0.78 µg/mL,12.5 µg/mL,3.13 µg/mL,3.13 µg/mL,25 µg/mL,3.13 µg/mL,,12.5 µg/mL,MIC ([1]; Shigella sonnei): 3.13 µg/mL; MIC ([9]; Shigella flexneri): 3.13 µg/mL
